{"source": "patent EP0017970A1", "about": "“Novel beta-lactam derivatives and process for production thereof” (SANRAKU-OCEAN CO., LTD., priority 1979, dated 1980)", "key": {"[1]": {"assay": "Test for concentration in blood (plasma of mouse, bioassay)", "assay_type": "in vivo", "conditions": "sc, subcutaneous, 2 mg/mouse, average on five mice; for Cmax: bioassay with Comamonas terrigena B-996, read-out: Maximum concentration; for half-life: read-out: Half period (period that elapsed until the concentration was reduced to half)", "description": "Typical species of the compounds of formula (VI-b) were each administered subcutaneously to five mice in a dose of 2 mg. After 5 minutes from the administration, a small amount of blood was periodically drawn from the eyes of the mice into a heparinized capillary tube, and centrifuged. The concentration of the compound in the supernatant liquid (plasma) was determined by a bioassay method using Comamonas terri^gena B-996."}, "[2]": {"system": "Staphylococcus aureus Smith strain", "assay": "Infection treating test (CD50)", "assay_type": "in vivo", "conditions": "in Mus musculus, sc, 2 h, mice infected intraperitoneally with 5 x 10^5 cells per mouse, subcutaneous injection two hours after the infection", "description": "The in vivo activities of the compounds of formula (VI-b) were determined by using mice (five per group, male DDY mice, Shizuoka) which had been intraperitoneally infected with Staphylococcus aureus Smith strain in an amount of 5 x 10^5 cells per mouse. Two hours after the infection, an injection containing a sodium salt of each of the compounds of formula (VI-b) was subcutaneously administered to the mice."}}}
{"smiles": "CC(O)[C@H]1C(=O)N2C(C(=O)O)=C(Sc3ncccn3)C[C@H]12", "note": "(relative stereo) [Table II r12 R1=-OH R2=[drawing] M=H*]", "values": [{"measurement": "Cmax", "setting": "[1]", "value": 54000, "unit": "ng/mL"}, {"measurement": "half-life", "setting": "[1]", "value": 25, "unit": "min"}, {"measurement": "ED50", "setting": "[2]", "value": 0.25, "unit": "mg/kg"}]}
{"smiles": "CCC1C(=O)N2C(C(=O)O)=C(SCCN(C)C)CC12", "note": "(stereo not drawn) [R1=H R2=-CH2CH2N(CH3)2 M=H]", "values": [{"measurement": "Cmax", "setting": "[1]", "value": 36200, "unit": "ng/mL"}, {"measurement": "half-life", "setting": "[1]", "value": 6, "unit": "min"}, {"measurement": "ED50", "setting": "[2]", "value": 0.25, "unit": "mg/kg"}]}
{"smiles": "CC(O)[C@@H]1C(=O)N2C(C(=O)O)=C(Sc3ncccn3)C[C@H]12", "note": "(relative stereo) [Table II r13 R1=-OH R2=[drawing] M=H**]", "values": [{"measurement": "Cmax", "setting": "[1]", "value": 23300, "unit": "ng/mL"}, {"measurement": "half-life", "setting": "[1]", "value": 19, "unit": "min"}, {"measurement": "ED50", "setting": "[2]", "value": 0.25, "unit": "mg/kg"}]}
{"smiles": "CCC1C(=O)N2C(C(=O)O)=C(Sc3ccccc3)CC12", "note": "(stereo not drawn) [Table II r15 R1=H R2=[drawing] M=Na]", "values": [{"measurement": "Cmax", "setting": "[1]", "value": 11300, "unit": "ng/mL"}, {"measurement": "half-life", "setting": "[1]", "value": 25.2, "unit": "min"}]}
{"smiles": "CCC1C(=O)N2C(C(=O)O)=C(Sc3ccccn3)CC12", "note": "(stereo not drawn) [Table II r9 R1=H R2=[drawing] M=H]", "values": [{"measurement": "Cmax", "setting": "[1]", "value": 48400, "unit": "ng/mL"}, {"measurement": "half-life", "setting": "[1]", "value": 29, "unit": "min"}, {"measurement": "ED50", "setting": "[2]", "value": 0.125, "unit": "mg/kg"}]}
{"smiles": "CC(C)C1C(=O)N2C(C(=O)O)=C(Sc3ccncc3)CC12", "note": "(stereo not drawn) [Table II r6 R1=-CH3 R2=[drawing] M=H]", "values": [{"measurement": "Cmax", "setting": "[1]", "value": 30700, "unit": "ng/mL"}, {"measurement": "half-life", "setting": "[1]", "value": 15.2, "unit": "min"}, {"measurement": "ED50", "setting": "[2]", "value": 0.5, "unit": "mg/kg"}]}
{"smiles": "CCC1C(=O)N2C(C(=O)O)=C(Sc3ccncc3)CC12", "note": "(stereo not drawn) [Table II r5 R1=H R2=[drawing] M=H]", "values": [{"measurement": "Cmax", "setting": "[1]", "value": 70700, "unit": "ng/mL"}, {"measurement": "half-life", "setting": "[1]", "value": 16, "unit": "min"}, {"measurement": "ED50", "setting": "[2]", "value": 0.063, "unit": "mg/kg"}]}
{"smiles": "CCC1C(=O)N2C(C(=O)O)=C(SC3CCCCC3)CC12", "note": "(stereo not drawn) [Table II r14 R1=H R2=[drawing] M=Na]", "values": [{"measurement": "Cmax", "setting": "[1]", "value": 8240, "unit": "ng/mL"}, {"measurement": "half-life", "setting": "[1]", "value": 7.2, "unit": "min"}]}
{"smiles": "CCC1C(=O)N2C(C(=O)O)=C(Sc3ncccn3)CC12", "note": "(stereo not drawn) [Table II r10 R1=H R2=[drawing] M=H]", "values": [{"measurement": "Cmax", "setting": "[1]", "value": 23600, "unit": "ng/mL"}, {"measurement": "half-life", "setting": "[1]", "value": 22, "unit": "min"}, {"measurement": "ED50", "setting": "[2]", "value": 0.25, "unit": "mg/kg"}]}
{"smiles": "CCC1C(=O)N2C(C(=O)O)=C(SCCNC(=O)Cc3ccccc3)CC12", "note": "(stereo not drawn) [R1=H R2=-CH2CH2NHCOCH2-[drawing] M=Na]", "values": [{"measurement": "Cmax", "setting": "[1]", "value": 2800, "unit": "ng/mL"}, {"measurement": "half-life", "setting": "[1]", "value": 6, "unit": "min"}]}
{"smiles": "CCC1C(=O)N2C(C(=O)O)=C(SCCO)CC12", "note": "(stereo not drawn) [R1=H R2=-CH2CH2OH M=Na]", "values": [{"measurement": "Cmax", "setting": "[1]", "value": 36900, "unit": "ng/mL"}, {"measurement": "half-life", "setting": "[1]", "value": 6, "unit": "min"}, {"measurement": "ED50", "setting": "[2]", "value": 1, "unit": "mg/kg"}]}
{"smiles": "CC(=O)NCCSC1=C(C(=O)O)N2C(=O)[C@H](C(C)O)[C@H]2C1", "note": "(stereo partly drawn) [PS-3A.Na, 3-(2-acetamidoethylthio)-6-(1-hydroxyethyl)-7-oxo-1-azabicyclo[3.2.0]hept-2-ene-2-carboxylic acid, reference compound]", "values": [{"measurement": "ED50", "setting": "[2]", "value": 4, "unit": "mg/kg"}]}
{"smiles": "CC(O)[C@@H]1C(=O)N2C(C(=O)O)=C(Sc3ccncc3)C[C@H]12", "note": "(relative stereo) [Table II r8 R1=-OH R2=[drawing] M=H**]", "values": [{"measurement": "Cmax", "setting": "[1]", "value": 29000, "unit": "ng/mL"}, {"measurement": "half-life", "setting": "[1]", "value": 13.5, "unit": "min"}, {"measurement": "ED50", "setting": "[2]", "value": 0.125, "unit": "mg/kg"}]}
{"smiles": "CCC1C(=O)N2C(C(=O)O)=C(SCCNC(C)=O)CC12", "note": "(stereo not drawn) [PS-5.Na, 3-(2-acetamidoethylthio)-6-ethyl-7-oxo-1-azabicyclo[3.2.0]hept-2-ene-2-carboxylic acid, reference compound]", "values": [{"measurement": "Cmax", "setting": "[1]", "value": 40000, "unit": "ng/mL"}, {"measurement": "half-life", "setting": "[1]", "value": 7, "unit": "min"}, {"measurement": "ED50", "setting": "[2]", "value": 1, "unit": "mg/kg"}]}
{"smiles": "CC(=O)NCCSC1=C(C(=O)O)N2C(=O)C(C(C)O)C2C1", "note": "(stereo not drawn) [PS-3B.Na, 3-(2-acetamidoethylthio)-6-(1-hydroxyethyl)-7-oxo-1-azabicyclo[3.2.0]hept-2-ene-2-carboxylic acid, reference compound]", "values": [{"measurement": "Cmax", "setting": "[1]", "value": 26300, "unit": "ng/mL"}, {"measurement": "half-life", "setting": "[1]", "value": 5, "unit": "min"}]}
{"smiles": "CC(O)[C@H]1C(=O)N2C(C(=O)O)=C(Sc3ccncc3)C[C@H]12", "note": "(relative stereo) [Table II r7 R1=-OH R2=[drawing] M=H*]", "values": [{"measurement": "Cmax", "setting": "[1]", "value": 103000, "unit": "ng/mL"}, {"measurement": "half-life", "setting": "[1]", "value": 18, "unit": "min"}, {"measurement": "ED50", "setting": "[2]", "value": 0.125, "unit": "mg/kg"}]}
{"smiles": "CC(C)C1C(=O)N2C(C(=O)O)=C(SCCN(C)C)CC12", "note": "(stereo not drawn) [R1=-CH3 R2=-CH2CH2N(CH3)2 M=H]", "values": [{"measurement": "Cmax", "setting": "[1]", "value": 22000, "unit": "ng/mL"}, {"measurement": "half-life", "setting": "[1]", "value": 6.1, "unit": "min"}, {"measurement": "ED50", "setting": "[2]", "value": 2, "unit": "mg/kg"}]}
{"smiles": "CC(C)C1C(=O)N2C(C(=O)O)=C(Sc3ncccn3)CC12", "note": "(stereo not drawn) [Table II r11 R1=-CH3 R2=[drawing] M=H]", "values": [{"measurement": "Cmax", "setting": "[1]", "value": 21200, "unit": "ng/mL"}, {"measurement": "half-life", "setting": "[1]", "value": 18.2, "unit": "min"}, {"measurement": "ED50", "setting": "[2]", "value": 1, "unit": "mg/kg"}]}
